The structures appear in SMILES notation.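 Results reflect a 48-hour exposure of cells in 96-well plates to compound at five concentrations. GI50 = concentration required for 50% inhibition of growth. At the TGI there is no net growth.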 *1 amine or outer side, *2 acyl side, *3 side chain or, on linkers, in order; H or OH if unused. Where a SMILES comes first, the peptide text is derived from it. Bridges are numbered along the chain shown (N, C = ends). Roman numbers before positions name the chains, in order. [ ]: non-standard residue; d: D form. Actinocin(9to1) = Cc1c2oc3c(C)ccc(C(=O)[*:1])c3nc-2c(C(=O)[*:2])c(N)c1=O; NMeV = CN[CH](C(=O)O)C(C)C; Sar = CNCC(=O)O Where only a bound is given, the exact number is not on record here.

Drawing on PubChem BioAssay (NCI), this text covers TGI and GI50 for 15 molecules.

Common to all, as to experiment: NCI-60 cell line screen, 48 h
Assay [1] concerns EKVX NSCLC.
In assay [2] the test system is IGROV1 ovarian.
For assay [3], the system named is M14 melanoma.
Assay [4] relates to MDA-N.
Assay [5] concerns SF-539 CNS.
The subject of assay [6] is SK-MEL-28 melanoma.
For assay [7], the system named is SNB-75 CNS.
The subject of assay [8] is UACC-62 melanoma.
For assay [9], the system named is HOP-92 NSCLC.
Assay [10] relates to MALME-3M melanoma.

For the molecule `COc1ccc(-c2c(N)n(-c3cccc(C(=O)O)c3)c(=O)c3cc([N+](=O)[O-])ccc23)cc1`, the TGI in assay [1], in assay [2], in [3], in assay [4], in assay [5] and in assay [6] was more than 100 µM each time. In addition, the TGI in assay [7] and in [8] was more than 100 µM in each case.
With `Cc1ccc(N2CCc3c(C)c(C#N)c4nc5ccccc5n4c32)cc1`, the TGI in assay [9] was 57.5 µM; in assay [2] it was more than 100 µM; in assay [10], more than 100 µM; in assay [5], more than 100 µM; in assay [6] it was more than 100 µM; in assay [7], 62 µM. Further, in assay [8], the TGI is more than 100 µM.
For the molecule `Cc1cc(-c2nc3ccccc3s2)ccc1NC(=O)[C@H](C)N`, the TGI in assay [9] worked out at 35.5 µM; in assay [2], 23.4 µM; in assay [3] it was 19.2 µM; in assay [10], 51.1 µM; in assay [4], 24.1 µM; in [6] it was 29.3 µM. Besides, the TGI worked out at 26.1 µM in assay [7] and 29.1 µM in assay [8].
As to `C=C1C(=O)OCC2C(C(=O)O)=CC3C(C)C(C)=CC123` (stereo not given), the TGI in assay [1] was 62.6 µM; in assay [9], 25.5 µM; in assay [2], 36.1 µM; in assay [10], 17.6 µM; in assay [5] it was 23.9 µM; in assay [6] it was 7.64 µM. Besides, the TGI was 44.1 µM in assay [7] and 11.8 µM in assay [8].
Take `O=C(NC1CCN(Cc2ccccc2)CC1)c1cc2nc(-c3ccc(Cl)s3)cc(C(F)(F)F)n2n1`: the GI50 in assay [9] was 15.4 µM; in [2] it was more than 100 µM; in assay [5], more than 100 µM; in [7] it was 10.5 µM. Besides, the TGI in assay [9], in assay [2], in [5] and in [7] was more than 100 µM each time.
On to `Oc1ccc(SCc2cc(O)c(O)c(O)c2)cc1`, for which the TGI in [1] is more than 100 µM; in assay [9], more than 100 µM; in assay [2], 57.8 µM; in assay [3] it was 33.1 µM; in [10], more than 100 µM; in [5], more than 100 µM. The values for the TGI in [6], in assay [7] and in assay [8] were more than 100 µM, more than 100 µM and 41.4 µM, respectively.
On to `C1CCC(OC2CSC2)OC1` (stereo not given), for which the TGI in assay [9], in [3], in assay [4], in [6] and in assay [7] was more than 100 µM each time.
Regarding `Cc1cccc(NC(=O)C(=O)C(C(=O)c2ccccc2F)C2OC(=O)c3ccccc32)c1Cl` (stereo not given), the TGI was more than 100 µM in assay [1]; more than 100 µM in [9]; more than 100 µM in [2]; more than 100 µM in assay [3]; 40.4 µM in assay [5]; more than 100 µM in assay [6]. The TGI amounted to 64.2 µM in assay [7] and 85.4 µM in assay [8].
Turning to `CCCCOP1(=O)C=C(C)C(=C(Cl)Cl)C(C)=C1` (stereo not given), the TGI in [1] was more than 100 µM; in assay [9], 4.88 µM; in assay [2], 49 µM; in assay [3], 54.8 µM; in assay [10], 31.6 µM; in [5], 83.3 µM. The TGI in [6] is 23.9 µM; in assay [7], more than 94.4 µM; in [8], 21.8 µM.
Take `c1ccc2c(c1)nc(NC1CCCC1)c1[nH]c(C3CCCC3)nc12`: the TGI in [1] was more than 100 µM; in assay [9], 37.2 µM; in assay [2], 46 µM; in assay [3], 10 µM; in [10], 30.7 µM; in assay [5], 21.1 µM. Moreover, the TGI in assay [6] was 28.3 µM; in [7], more than 100 µM; in assay [8], 29.8 µM.
Take `O=[Se](=O)c1ccccc1.O=[Se](=O)c1ccccc1.[Cu]`: the GI50 was 21.4 µM in assay [9]; 18.5 µM in [2]; 16.8 µM in [10]; 16.4 µM in [5]; 16.6 µM in [6]; 22 µM in assay [7]. Also, the GI50 in assay [8] was 6.82 µM. In addition, the TGI in assay [9] was determined as 37.3 µM; in assay [2], 37.3 µM; in [10], 31.7 µM; in assay [5] it was 30.6 µM; in assay [6] it was 30.7 µM; in [7], 37.6 µM. In [8], the TGI was determined as 18.9 µM.
In the case of `C#CC(F)(F)[C@]1(O)CC[C@H]2[C@@H]3CCC4=CC(=O)CCC4=C3[C@@H](c3ccc(C(C)=O)cc3)C[C@@]21C`, the GI50 in [9] was 0.0456 µM; in [3], 16.9 µM; in assay [6], 16.2 µM; in assay [7], 3.82 µM; in [8], 12.5 µM. Further, the TGI was 0.356 µM in assay [9]; more than 84.9 µM in [3]; more than 72.4 µM in [6]; more than 100 µM in [7]; 33.8 µM in [8].
With `COP(=O)(OC)C(Cc1c[nH]c2ccccc12)NC(=O)OCc1ccccc1` (stereo not given), the TGI in assay [9], in assay [2], in assay [3], in [4], in assay [6] and in assay [7] was more than 100 µM each time.
In the case of `O=C1/C(=C/c2ccccc2[N+](=O)[O-])N=C(c2ccccc2)N1C1Nc2cc3c(cc2S1)NC(N1C(=O)/C(=C/c2ccccc2[N+](=O)[O-])N=C1c1ccccc1)S3` (stereo not given), the TGI in assay [1], in assay [9], in assay [2], in assay [3], in assay [4] and in assay [5] was more than 100 µM each time. The TGI in assay [6] and in [7] was more than 100 µM in each case.
`Cc1c2oc3c(C)ccc(C(=O)NC4C(=O)NC(C(C)O)C(=O)N5CCCC5C(=O)N(C)CC(=O)N(C)C(C(C)C)C(=O)OC4C)c3nc-2c(C(=O)NC2C(=O)NC(C(C)O)C(=O)N3CCCC3C(=O)N(C)CC(=O)N(C)C(C(C)C)C(=O)OC2C)c(N)c1=O` (stereo not given) (I: TTP[Sar][NMeV] / II: TTP[Sar][NMeV]; ester I:1-I:C, II:1-II:C; linker I:N-II:N via Actinocin(9to1); configuration not given here): the TGI in [1] was more than 42.2 µM; in assay [2], more than 100 µM; in assay [3], 3.77 µM; in [4], 11.8 µM; in assay [5], 1.44 µM; in [6] it was 2.75 µM. The figures for the TGI in [7] and in assay [8] were 1.95 µM and 0.528 µM, respectively.
